Laboratory results as given in US9278067B2, “Encapsulation of plasmid DNA (lipogenes™) and therapeutic agents with nuclear localization signal/fusogenic peptide conjugates into targeted liposome complexes” (Regulon, Inc., priority 2000, dated 2016).

Tests used:
[1] = test system: K562 human erythroleukemia cell cultures; assay: Transfection of K562 cells with plasmid pCMVβ, beta-galactosidase reporter expression; format: cell-based; settings: FIG. 2
[2] = pH 7.4; cited from earlier work
[3] = test system: complement system; settings: cited from earlier work
[4] = test system: isolated lysosomes; settings: low concentrations of lipid; cited from earlier work
[5] = test system: luciferase; settings: cited from earlier work
[6] = low concentrations (0.03-0.1 mM)
[7] = test system: neuronal cell; settings: cited from earlier work
[8] = test system: several different types of cells; settings: with monovalent cationic liposomal formulations (DC-Chol and lipofectin); cited from earlier work
[9] = cell culture; cited from earlier work
[10] = test system: C-terminal fragments of the amyloid peptide; settings: cited from earlier work

Molecule: CC(C)CCC[C@@H](C)[C@H]1CC[C@H]2[C@@H]3CC=C4C[C@@H](OC(=O)NCCN(C)C)CC[C@]4(C)[C@H]3CC[C@]12C [DC-cholesterol, 3β[N—(N′,N′-dimethylaminoethane)carbamoyl]cholesterol]
- cationic lipid compared by level of expression of the reporter beta-galactosidase gene ([1]; liposomes L2-L6 with DOPE): best cationic lipid
- charged fraction [2]: about 50%

Molecule: CCCCCCCCCCCCCCOCC(C[N+](C)(C)CCO)OCCCCCCCCCCCCCC.[Br-] (centres unmarked) [DMRIE, N-[1-(2,3-dimyristyloxy)propyl]-N,N-dimethyl-N-(2-hydroxyethyl) ammonium bromide]
- charged fraction [2]: 100%

Molecule: CCCCCCCCCCCCCCCCCCN(CCCCCCCCCCCCCCCCCC)C(=O)CNC(=O)C(CCCNCCCN)NCCCN (centres unmarked) [DOGS, Dioctadecylamidoglycylspermine]
- complement activation [3]: Strong complement activation

Molecule: CCCCCCCC/C=C\CCCCCCCC(=O)OCC(C[N+](C)(C)C)OC(=O)CCCCCCC/C=C\CCCCCCCC.[Cl-] (centres unmarked) [DOTAP, N-(1-(2,3-dioleoyloxy)propyl)-N,N,N-trimethylammonium chloride]
- free activity of β-galactosidase of isolated lysosomes (membrane destabilization) [4]: striking increase in free activity of β-galactosidase
- charged fraction [2]: 100%
- increase of antisense activity of anti-luciferase oligonucleotide [5]: over 100 fold

Molecule: NCCCNCCCCNCCCN [Spermine]
- transfection efficiency [6]: enhanced significantly transfection efficiency

Molecule: Non-aggregated amyloid beta-peptide (1-40): Alzheimer's beta-amyloid peptide 1-40, non-aggregated
- Properties: neuronal cell death [7]: Induces apoptotic neuronal

Molecule: Protamine sulfate
- plasmid delivery into cells in vitro [8]: enhanced plasmid delivery
- efficiency of adenovirus-mediated gene transfer [9]: significantly increased

Molecule: apoE2: apolipoprotein E isoform
- inhibition of amyloid peptide fusogenic and aggregational properties [10]: potent inhibitors

Molecule: apoE3: apolipoprotein E isoform
- inhibition of amyloid peptide fusogenic and aggregational properties [10]: potent inhibitors

Molecule: apoE4: apolipoprotein E isoform
- inhibition of amyloid peptide fusogenic and aggregational properties [10]: not apoE4

Molecule: poly(ethyleneimine)
- complement activation [3]: Strong complement activation

Molecule: poly-L-lysine
- efficiency of adenovirus-mediated gene transfer [9]: significantly increased

Molecule: polyhistidine
- DNA condensing reagent compared by level of expression of the reporter beta-galactosidase gene ([1]; 10 μg pCMVβ, polyK/polyR/polyH plus liposomes 7 nmoles/μg DNA): best DNA condensing reagent
